Measured values published in patent US20240261294A1, “METHOD FOR TREATING IDH INHIBITOR-RESISTANT SUBJECTS” (Eli Lilly and Company, priority 2021, published 2024).
Substitutions are numbered along the chain they refer to. Where two headings read alike, the source gives them in different places.

What was measured:
[1] = biological target: T1, IDH2 R172K_P167R cis (Homo sapiens, UniProt P48735, P167R/R172K); assay: Inhibition of 2-HG production in IDH2 mutant U-87 MG cells; format: cell-based; conditions: 16 hours incubation, 50K cells/well, 100 μl media/well, read-out: Relative IC50 (nM) Mean, inhibition of 2-HG production
T1 construct: expressed in transfected cells; host or cells: U-87 MG
T1 sequence (P48735 40-452 P167R/R172K): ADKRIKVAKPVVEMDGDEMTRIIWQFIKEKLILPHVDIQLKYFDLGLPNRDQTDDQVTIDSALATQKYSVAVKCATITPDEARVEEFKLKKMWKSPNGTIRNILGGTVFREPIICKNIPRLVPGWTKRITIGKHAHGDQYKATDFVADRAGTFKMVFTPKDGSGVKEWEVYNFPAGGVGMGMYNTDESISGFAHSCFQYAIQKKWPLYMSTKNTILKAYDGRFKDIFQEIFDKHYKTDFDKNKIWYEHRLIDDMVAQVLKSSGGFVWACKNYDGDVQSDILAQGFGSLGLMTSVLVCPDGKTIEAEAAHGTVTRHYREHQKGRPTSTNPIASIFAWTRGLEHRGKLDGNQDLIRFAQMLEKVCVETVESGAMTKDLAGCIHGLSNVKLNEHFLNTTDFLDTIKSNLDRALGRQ

[2] = biological target: T2, IDH2 R140Q_Q316E cis (Homo sapiens, UniProt P48735, Q316E/R140Q); assay: as above; format: cell-based
T2 construct: expressed in transfected cells; host or cells: U-87 MG
T2 sequence (P48735 40-452 R140Q/Q316E): T1 sequence (P48735 40-452 P167R/R172K) with R101Q, R128P, K133R, Q277E

IC50 [1]: 119 nM
IC50 ([2]; 16 hours incubation, 50K cells/well, 100 μl media/well, read-out: Relative IC50 (nM) Mean, inhibition of 2-HG production): 16 nM
IC50 ([2]; 72 hours incubation, 12.5K cells/well, 150 μl media/well, read-out: IC50, inhibition of 2-HG production): 22 nM
SMILES: C=CC(=O)N1CCN([C@@H](CC2CC2)c2ccc([C@H](C)Nc3ncc4c(n3)N(CC)C(=O)OC4)cc2)CC1 [Compound A, 7-[[(1S)-1-[4-[(1S)-2-cyclopropyl-1-(4-prop-2-enoylpiperazin-1-yl)ethyl]phenyl]ethyl]amino]-1-ethyl-4H-pyrimido[4,5-d][1,3]oxazin-2-one]
